Columns and labels:
CT-DNA = assay: DNA cleavage by agarose gel electrophoresis in presence of H2O2; type: biochemical, calf; details: in the presence of H2O2, agarose gel
From the text: The DNA nuclease characteristics were scrutinized of all substances along with DNA containing H2O2 and Tris-HCl buffer solution with a pH of 7.4 [19]. The gel layer was discarded from the tank solution after the experiment was finished and put in front of a UV transilluminator, and each band lane was also scrutinized with the control (DNA + H2O2).
2.1. Resources and Techniques
We purchased the essential chemical substances and other reagents from Sigma Aldrich repository. Numerous analytical and spectral measurements were utilized to describe all the test compounds, including Bruker 300 MHz 1H NMR spectrometer, or Avance III HD Nanobay 400 MHz, Shimadzu FT-IR spectrometer, Shimadzu UV-Vis 1800, Varian E112 EPR spectrometer, Bruker Daltonics ESI-MS 3000 or Bruker Compact qTOFMS coupled to an LC system and (Varian Inc, USA, 410 proStar binary LC with 500 MS, IT, and PDA detectors, or Thermo Ultimate 3000 with PDA), Bruker AXS KAPPA APEX-2 or D8 ADVANCE diffractometers (SCXRD) and other analytical techniques. The further details were encapsulated in our previous reports.
2.2. DNA/BSA interaction studies
2.2.1. […]
After the completion of the experiment, the gel layer was taken out of the tank solution and exposed to a UV transilluminator. All band lanes were evaluated and compared to the control (DNA+H2O2) using bromophenol blue, […] is useful for visually analyzing the migrated band lanes for the degree of DNA cleavage. […]
By increasing the concentration of DNA (0 –50 μM), electronic absorption titrations were performed at the fixed concentration (50 μM) of all test compounds in aqueous media at room temperature. […] Using the molar extinction coefficient (6600 M −1 cm−1) at 260 nm, it was also possible to measure the DNA concentration per nucleotide and polynucleotide, denoting that the DNA was sufficiently free of protein by the ratio of absorbance at 260 and 280 nm of roughly 1.8 –1.9 [21, 22]. When raising the concentration of DNA in compound solution, up to the point of completely binding, the decrease in absorbance intensity was carefully observed.

BSA = target: T1, BSA (Bos taurus, UniProt P02769); assay: BSA binding by UV–vis absorption titration; set-up: species or system bovine; details: for Δλ (nm) (blue shift of BSA band at 278 nm) / Chromism (% H) (hyperchromism): BSA 25 μM, compound 0–25 μM; for Chromism (% H) (hyperchromism): 278 nm; for Binding Constant Kapp by BH Method: BSA, UV–Vis titration; for ΔGb°: −RT ln Kapp, T = 298 K
T1 construct: purchased Sigma Aldrich
T1 sequence (P02769 25-607): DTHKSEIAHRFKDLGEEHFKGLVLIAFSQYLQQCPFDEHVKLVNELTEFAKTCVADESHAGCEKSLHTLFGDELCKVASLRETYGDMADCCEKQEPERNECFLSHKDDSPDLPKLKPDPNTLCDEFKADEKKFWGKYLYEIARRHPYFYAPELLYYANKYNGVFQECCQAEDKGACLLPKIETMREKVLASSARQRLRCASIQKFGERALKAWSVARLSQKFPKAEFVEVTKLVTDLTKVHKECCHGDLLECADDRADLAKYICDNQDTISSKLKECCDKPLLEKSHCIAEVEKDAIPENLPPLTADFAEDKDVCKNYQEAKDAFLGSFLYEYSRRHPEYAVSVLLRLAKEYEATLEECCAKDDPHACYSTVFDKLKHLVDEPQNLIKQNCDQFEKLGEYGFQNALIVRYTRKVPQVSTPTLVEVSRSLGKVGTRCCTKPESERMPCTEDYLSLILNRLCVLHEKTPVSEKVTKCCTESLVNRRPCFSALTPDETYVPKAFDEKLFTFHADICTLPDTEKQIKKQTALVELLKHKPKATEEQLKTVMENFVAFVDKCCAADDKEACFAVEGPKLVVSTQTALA
Procedure: UV–vis spectral titrations were performed with a 25 μM concentration of BSA at room temperature with a 5 mM Tris-HCl/50 mM NaCl buffer solution (pH: 7.4). When the sample concentrations (0–25 μM) increased in the same BSA concentration solution, the alteration in the absorption band at 278 nm was continuously monitored.
2.2.8. UV-Vis absorption titrations for the BSA binding assay
The test compound concentrations (0 –25 μM) were varied during the electronic absorption titrations, which were conducted at a fixed BSA concentration (25 μM) in aqueous media (pH = 7.2) at 25 °C. The property of BSA is also confirmed by the observation of a strong absorption band in the UV region at 278 nm. […] The increment of the test compound causes a gradual increase in the BSA absorption band, which leads to the […]
owing to non-covalent interaction of the test compound with BSA [33].
∆Amax = (A∞ - A0), ∆A = (Ax - A0), A0 , Ax and A∞ are denoted as the absorbance of free BSA, the absorbance of BSA in the increment concentrations of the compound, and the absorbance value of the fully bound form of bovine serum albumin with substance, respectively.

[1] = Nitric oxide scavenging assay; type: biochemical; details: 546 nm
Aspergillus niger = assay: Agar disc diffusion antifungal test; details: for diameter of clear zone inhibition / Inhibition %: H; for diameter of clear zone inhibition: 20 µL of 100 µM on 6 mm disc, Control (DMSO) = 6 mm; for Inhibition %: (T–C)/T × 100
Staphylococcus Aureus = assay: Agar disc diffusion antibacterial test; details: for diameter of clear zone inhibition / Inhibition %: F, (+) Staphylococcus Aureus; for diameter of clear zone inhibition: 20 µL of 100 µM on 6 mm disc, Control (DMSO) = 6 mm; for Inhibition %: (T–C)/T × 100
[2] = Superoxide scavenging assay; type: biochemical; details: 590 nm
[3] = tested on: Salmonella enteric serovar typhi; assay: Agar disc diffusion antibacterial test; type: cell-based; details: B; for Inhibition %: (T–C)/T × 100
EB–DNA = assay: Ethidium bromide displacement assay by fluorescence spectral titration; type: binding, calf; details: Kapp=KEB[EB]/[compound], KEB = 10^7 M^−1 at 50 µM EB; compound concentration at 50% reduction of EB fluorescence
[4] = 20 µL of 100 µM on 6 mm disc, Control (DMSO) = 6 mm

Structure (SMILES) | DNA cleavage (chemical nuclease activity) (CT-DNA) | Δλ (nm) (blue shift of BSA band at 278 nm) (BSA) | Chromism (% H) (hyperchromism) (BSA) [%] | ΔGb° (BSA) [kJmol^−1] | % Inhibition, nitric oxide ([1]; 40 µM) [%] | % Inhibition, nitric oxide ([1]; 80 µM) [%] | % Inhibition, nitric oxide ([1]; 120 µM) [%] | % Inhibition, nitric oxide ([1]; 160 µM) [%] | % Inhibition, nitric oxide ([1]; 200 µM) [%] | % Inhibition, nitric oxide ([1]; 240 µM) [%] | Inhibition % (Aspergillus niger) [%] | Inhibition % (Staphylococcus Aureus) [%] | % Inhibition, superoxide ([2]; 40 µM) [%] | % Inhibition, superoxide ([2]; 80 µM) [%] | % Inhibition, superoxide ([2]; 120 µM) [%] | % Inhibition, superoxide ([2]; 160 µM) [%] | % Inhibition, superoxide ([2]; 200 µM) [%] | % Inhibition, superoxide ([2]; 240 µM) [%] | Inhibition % [3] [%] | Kapp (apparent binding constant) (EB–DNA) [M⁻¹] | other results
[Cu+2].[O-]c1ccccc1N=Cc1ccc(N2CCOCC2)cc1.[O-]c1ccccc1N=Cc1ccc(N2CCOCC2)cc1.c1cnc2c(c1)ccc1cccnc12 [(1b), [Cu^II(L)2(phen)]] | complete DNA cleavage | 8 | 64.70 | −25.9330 | 18.03 | 25.43 | 35.67 | 42.86 | 52.29 | 66.21 | 40 | 45 | 08.45 | 16.53 | 32.18 | 48.09 | 60.93 | 68.21 | 40 | 1e+07 | Binding Constant Kapp by BH Method (BSA): 35140 M⁻¹; diameter of clear zone inhibition (Aspergillus niger): 10 mm; diameter of clear zone inhibition (Staphylococcus Aureus): 11 mm; IC50 [2]: 200 µM; diameter of clear zone inhibition [3, 4]: 10 mm
[O-]c1ccccc1N=Cc1ccc(N2CCOCC2)cc1.[O-]c1ccccc1N=Cc1ccc(N2CCOCC2)cc1.[Zn+2].c1cnc2c(c1)ccc1cccnc12 [(2b), [Zn^II(L)2(phen)]] | partially cleaves DNA | 8 | 62.16 | −24.7590 | 14.67 | 22.43 | 29.42 | 38.82 | 45.53 | 59.88 | 45 | 45 | 06.70 | 12.58 | 24.23 | 40.35 | 52.23 | 60.02 | 40 | 4.804e+06 | Binding Constant Kapp by BH Method (BSA): 21878 M⁻¹; diameter of clear zone inhibition (Aspergillus niger): 11 mm; diameter of clear zone inhibition (Staphylococcus Aureus): 11 mm; diameter of clear zone inhibition [3, 4]: 10 mm
Oc1ccccc1N=Cc1ccc(N2CCOCC2)cc1 [(HL), 2-(4-morpholinobenzylideneamino)phenol] | No discernible DNA cleavage | 2 | 47.79 | −22.3387 | 11.42 | 18.26 | 24.28 | 33.21 | 40.53 | 51.62 | 40 | 33 | 05.23 | 10.74 | 18.85 | 33.55 | 40.91 | 50.42 | 33 | 4.2e+06 | zone of inhibition at 100 µM (Aspergillus niger; read-out: diameter of clear zone inhibition): 10 mm; zone of inhibition at 100 µM (Staphylococcus Aureus; Staphylococcus aureus, read-out: diameter of clear zone inhibition): 9 mm; zone of inhibition at 100 µM ([3]; 20 µL of 100 µM on 6 mm disc, Control (DMSO) = 6 mm, read-out: diameter of clear zone inhibition): 9 mm

Reference: article PMC9775322, “An Integrated Analysis of Mechanistic Insights into Biomolecular Interactions and Molecular Dynamics of Bio-Inspired Cu(II) and Zn(II) Complexes towards DNA/BSA/SARS-CoV-2 3CL^pro by Molecular Docking-Based Virtual Screening and FRET Detection” (Biomolecules, 2022)
